Source: ChEMBL document CHEMBL5375976, “Discovery of Inhibitory Fragments That Selectively Target Spire2-FMN2 Interaction” (J Med Chem, 2023)

Biological target: T1, Fermitin family homolog 2 (Homo sapiens) (UniProt Q96AC1)
T1 sequence (whole entry): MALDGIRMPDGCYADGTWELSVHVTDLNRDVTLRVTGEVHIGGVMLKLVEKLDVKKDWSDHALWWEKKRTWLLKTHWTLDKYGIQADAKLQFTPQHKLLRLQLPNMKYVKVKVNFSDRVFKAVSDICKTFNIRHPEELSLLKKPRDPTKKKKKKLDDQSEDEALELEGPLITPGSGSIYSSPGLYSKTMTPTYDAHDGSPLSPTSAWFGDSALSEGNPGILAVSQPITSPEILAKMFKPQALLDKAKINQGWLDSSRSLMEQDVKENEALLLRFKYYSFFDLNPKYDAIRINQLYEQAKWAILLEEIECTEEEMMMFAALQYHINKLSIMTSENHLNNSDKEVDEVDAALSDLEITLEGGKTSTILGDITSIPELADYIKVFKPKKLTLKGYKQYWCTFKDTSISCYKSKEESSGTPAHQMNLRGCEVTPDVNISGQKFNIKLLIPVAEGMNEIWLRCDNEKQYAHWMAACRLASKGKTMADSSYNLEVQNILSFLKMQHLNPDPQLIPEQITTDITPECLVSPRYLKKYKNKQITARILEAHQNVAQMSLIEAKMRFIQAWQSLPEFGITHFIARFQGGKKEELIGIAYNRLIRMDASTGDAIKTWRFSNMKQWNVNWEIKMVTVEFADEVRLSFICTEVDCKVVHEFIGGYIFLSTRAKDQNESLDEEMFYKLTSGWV
Description: Binding affinity to His6-tagged KIND2 (unknown origin) expressed in Escherichia coli BL21(DE3) assessed as change in melting temperature by DSF analysis

`NCCNc1ccnc2cc(OCc3ccccc3)ccc12` showed a ΔTm of 0 °C.
